We go through 10 molecules from PubChem BioAssay (NCI).

Among the test systems are HCT-116 colon; M14 melanoma; OVCAR-4 ovarian; SR leukemia; MCF7 breast; DU-145 prostate; SF-539 CNS; NCI-H460 lung; OVCAR-5 ovarian; SK-OV-3 ovarian.
Test in all cases: DTP human tumour cell line panel, 48 h

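Interpolation was linear, between the two tested concentrations surrounding the appropriate level; five concentrations were tested over 48 hours in 96-well plates. GI50 marks 50% less growth. Definition used: TGI = concentration required for complete inhibition of growth.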

With `Cc1ccc(Cl)cc1Nc1nc(C(F)(F)F)ccc1C(=O)N/N=C/c1cccnc1`, the GI50 was 2.34 µM in the assay on HCT-116 colon; 1.44 µM in the assay on M14 melanoma; 1.33 µM in the assay on OVCAR-4 ovarian; 0.148 µM in the assay with SR leukemia; 2.45 µM with MCF7 breast; 3.38 µM with DU-145 prostate. The GI50 with SF-539 CNS is 2.45 µM; in the assay on NCI-H460 lung, 2.76 µM; with OVCAR-5 ovarian, 3.44 µM; in the assay on SK-OV-3 ovarian, 3.31 µM. Also, the TGI is 14.4 µM in the assay with HCT-116 colon; 3.92 µM in the assay with M14 melanoma; 15.4 µM in the assay on OVCAR-4 ovarian; 13.9 µM with MCF7 breast; 9.73 µM in the assay with DU-145 prostate; 10 µM in the assay on SF-539 CNS. In addition, the results for the TGI in the assay with NCI-H460 lung, with OVCAR-5 ovarian and in the assay with SK-OV-3 ovarian were 11.1 µM, 17.1 µM and 15.9 µM, respectively.
As to `Cc1cc(Cl)cc2c(N=Nc3ccc(S(N)(=O)=O)cc3)c(O)[nH]c12`, the GI50 with HCT-116 colon, in the assay on M14 melanoma, with OVCAR-4 ovarian, in the assay on SR leukemia, in the assay with MCF7 breast and in the assay on DU-145 prostate was over 25 µM each time. Further, the GI50 in the assay with SF-539 CNS, in the assay with NCI-H460 lung, with OVCAR-5 ovarian and in the assay on SK-OV-3 ovarian was over 25 µM in each case. Further, the TGI in the assay with HCT-116 colon, with M14 melanoma, with OVCAR-4 ovarian, in the assay with SR leukemia, in the assay with MCF7 breast and with DU-145 prostate was over 25 µM in each case. The concentration for total growth inhibition (TGI) with SF-539 CNS, in the assay on NCI-H460 lung, in the assay on OVCAR-5 ovarian and with SK-OV-3 ovarian was over 25 µM in each case.
Take `N#Cc1c(NC(=O)NCc2ccccc2)sc2c1CCCC2`: the GI50 was 0.533 µM with HCT-116 colon; 0.421 µM in the assay on M14 melanoma; 1.78 µM in the assay on OVCAR-4 ovarian; 0.35 µM in the assay on SR leukemia; 0.363 µM in the assay with MCF7 breast; 0.801 µM in the assay with DU-145 prostate. The GI50 was 0.37 µM with SF-539 CNS, 0.407 µM in the assay with NCI-H460 lung, 2.39 µM with OVCAR-5 ovarian and 9.2 µM in the assay with SK-OV-3 ovarian. Further, the TGI in the assay with HCT-116 colon was over 100 µM; with M14 melanoma, over 100 µM; in the assay with OVCAR-4 ovarian, over 100 µM; in the assay on SR leukemia, over 100 µM; in the assay with MCF7 breast it was over 100 µM; in the assay on DU-145 prostate it was over 33.5 µM. Besides, the TGI in the assay with SF-539 CNS was 4.68 µM; with NCI-H460 lung, over 100 µM; with OVCAR-5 ovarian it was over 100 µM; with SK-OV-3 ovarian, over 100 µM.
For the molecule `CCC(CC)c1nc(Nc2ccc(C(=O)OC)cc2)c2ccccc2n1`, the GI50 with HCT-116 colon is 12.9 µM; with M14 melanoma it was 10 µM; with OVCAR-4 ovarian, 7.45 µM; with SR leukemia it was 10.1 µM; in the assay with MCF7 breast, 24.2 µM; in the assay with DU-145 prostate it was over 22.7 µM. Besides, the GI50 with SF-539 CNS is over 20.5 µM; in the assay with NCI-H460 lung it was 19.9 µM; with OVCAR-5 ovarian, 17.9 µM; in the assay with SK-OV-3 ovarian, 9.54 µM. In addition, the TGI in the assay with HCT-116 colon is over 28.6 µM; with M14 melanoma it was 21.6 µM; with OVCAR-4 ovarian, 18.6 µM; in the assay on SR leukemia, 26.7 µM; with MCF7 breast, over 50 µM; in the assay on DU-145 prostate, over 31.1 µM. Moreover, the TGI was over 28.6 µM in the assay with SF-539 CNS, over 50 µM with NCI-H460 lung, over 50 µM in the assay with OVCAR-5 ovarian and 19 µM in the assay on SK-OV-3 ovarian.
On to `CSC1=Nc2c(c(C)c(-c3ccccc3)n2CCCN2CCCCC2)C2=NC(=O)C[C@H](C)N12`, for which the GI50 in the assay with HCT-116 colon was 2.71 µM; in the assay with M14 melanoma, 3.68 µM; in the assay with OVCAR-4 ovarian, 3.21 µM; in the assay on SR leukemia it was 16.7 µM; with MCF7 breast, 2.72 µM; with DU-145 prostate, 4.01 µM. The GI50 is 6.07 µM in the assay with SF-539 CNS, 3.27 µM in the assay with NCI-H460 lung, 11.3 µM with OVCAR-5 ovarian and 2.66 µM with SK-OV-3 ovarian. The concentration for total growth inhibition (TGI) was over 44.6 µM in the assay with HCT-116 colon; 16.1 µM in the assay with M14 melanoma; 37.7 µM with OVCAR-4 ovarian; over 100 µM in the assay with SR leukemia; 11.3 µM in the assay with MCF7 breast; over 52.4 µM in the assay with DU-145 prostate. Moreover, the TGI in the assay on SF-539 CNS was 70.4 µM; with NCI-H460 lung, 12.4 µM; in the assay with OVCAR-5 ovarian, over 100 µM; in the assay on SK-OV-3 ovarian, 8.57 µM.
As to `COC1=CC(c2ccc[nH]2)=N/C1=C\c1[nH]c(C)c(CC(=O)OCc2ccccc2)c1CCC(=O)OCc1ccccc1`, the GI50 is 0.233 µM in the assay with HCT-116 colon; 0.223 µM in the assay on M14 melanoma; 0.358 µM in the assay on OVCAR-4 ovarian; 0.236 µM with SR leukemia; 0.372 µM with MCF7 breast; 0.438 µM in the assay with DU-145 prostate. The GI50 was 0.458 µM in the assay on SF-539 CNS, 0.399 µM in the assay with NCI-H460 lung, 1.26 µM with OVCAR-5 ovarian and 0.523 µM with SK-OV-3 ovarian. Also, the TGI with HCT-116 colon worked out at 1.04 µM; with M14 melanoma, 0.573 µM; with OVCAR-4 ovarian, 17.6 µM; with SR leukemia, 0.74 µM; in the assay on MCF7 breast, 5.5 µM; with DU-145 prostate, 12.1 µM. Moreover, the TGI in the assay on SF-539 CNS stood at 1.74 µM; with NCI-H460 lung, 13.1 µM; in the assay on OVCAR-5 ovarian, 6.12 µM; in the assay on SK-OV-3 ovarian, 3.11 µM.
Regarding `Cc1cc(=O)[nH]c(N/N=C/c2cc(Br)ccc2O)n1`, the GI50 is 0.353 µM in the assay on HCT-116 colon; 0.53 µM in the assay on M14 melanoma; 0.383 µM in the assay on OVCAR-4 ovarian; 0.896 µM in the assay with SR leukemia; 0.318 µM in the assay with MCF7 breast; 1.78 µM with DU-145 prostate. Further, the GI50 in the assay on SF-539 CNS was 2.78 µM; in the assay with NCI-H460 lung, 0.488 µM; in the assay on OVCAR-5 ovarian, 5.07 µM; with SK-OV-3 ovarian, 1.34 µM. For the same molecule, the TGI was over 100 µM in the assay on HCT-116 colon; over 100 µM with M14 melanoma; 33.8 µM in the assay on OVCAR-4 ovarian; over 100 µM in the assay with SR leukemia; 16.6 µM in the assay on MCF7 breast; over 100 µM in the assay on DU-145 prostate. Moreover, the TGI in the assay with SF-539 CNS is 39 µM; in the assay on NCI-H460 lung, 20.5 µM; with OVCAR-5 ovarian, over 100 µM; with SK-OV-3 ovarian, over 100 µM.
Turning to `C=C(C)[C@@H]1CC[C@]2(COCCC#N)CC[C@]3(C)[C@H](CC[C@@H]4[C@@](C)(CCCNCCC#N)[C@H](C(=C)C)CC[C@]43C)[C@@H]12`, the GI50 in the assay on HCT-116 colon is 7.25 µM; with M14 melanoma, 14.7 µM; with OVCAR-4 ovarian, 18 µM; in the assay on SR leukemia it was 8.48 µM; with MCF7 breast, 9.9 µM; in the assay with DU-145 prostate, 21.6 µM. The GI50 is 9.78 µM in the assay with SF-539 CNS, 13.2 µM in the assay on NCI-H460 lung, 13.4 µM in the assay with OVCAR-5 ovarian and over 50 µM in the assay with SK-OV-3 ovarian. Besides, the TGI is 13.8 µM with HCT-116 colon; over 50 µM in the assay with M14 melanoma; over 50 µM with OVCAR-4 ovarian; 42.3 µM with SR leukemia; 48.5 µM in the assay on MCF7 breast; over 50 µM with DU-145 prostate. The concentration for total growth inhibition (TGI) is 20.4 µM in the assay on SF-539 CNS, over 50 µM with NCI-H460 lung, 44.1 µM in the assay on OVCAR-5 ovarian and over 50 µM in the assay with SK-OV-3 ovarian.
With `Nc1c(C(=O)c2ccc(-c3cccnc3)cc2)cnn1-c1ccc(F)cc1`, the GI50 was over 14 µM with HCT-116 colon; over 25 µM in the assay on M14 melanoma; 8.41 µM with OVCAR-4 ovarian; over 25 µM in the assay with SR leukemia; over 25 µM with MCF7 breast; over 25 µM in the assay on DU-145 prostate. Moreover, the GI50 with SF-539 CNS was over 16.7 µM; with NCI-H460 lung it was over 14.2 µM; with OVCAR-5 ovarian, over 25 µM; with SK-OV-3 ovarian, over 14.2 µM. Moreover, the TGI with HCT-116 colon was over 25 µM; in the assay with M14 melanoma, over 25 µM; with OVCAR-4 ovarian, over 24 µM; with SR leukemia, over 25 µM; in the assay on MCF7 breast, over 25 µM; with DU-145 prostate, over 25 µM. Also, the TGI in the assay with SF-539 CNS is over 25 µM; in the assay with NCI-H460 lung, over 25 µM; in the assay with OVCAR-5 ovarian, over 25 µM; in the assay with SK-OV-3 ovarian, over 23 µM.
As for `COC(=O)[C@@H](C)C[C@H](Cc1cn(C)c2ccccc12)NC(=O)c1csc([C@@H](C[C@H](C(C)C)N(C)C(=O)[C@@H](NC(=O)[C@H]2CCCCN2C)C(C)C)OC(C)=O)n1`, the GI50 with HCT-116 colon was 0.00707 µM; with M14 melanoma, 0.0121 µM; in the assay with OVCAR-4 ovarian it was 0.575 µM; with SR leukemia it was 0.00298 µM; in the assay with MCF7 breast it was 0.00524 µM; in the assay on DU-145 prostate, 0.00811 µM. Moreover, the GI50 in the assay with SF-539 CNS was 0.0173 µM; with NCI-H460 lung, 0.0101 µM; with OVCAR-5 ovarian, 0.0671 µM; in the assay with SK-OV-3 ovarian it was 0.0602 µM. The TGI is over 16.7 µM in the assay with HCT-116 colon; 0.645 µM in the assay on M14 melanoma; over 16.7 µM in the assay on OVCAR-4 ovarian; over 16.7 µM with SR leukemia; over 16.7 µM with MCF7 breast; 0.116 µM with SF-539 CNS. Further, the TGI is over 6.11 µM in the assay with NCI-H460 lung, over 16.7 µM in the assay with OVCAR-5 ovarian and over 16.7 µM in the assay with SK-OV-3 ovarian.
